Measured values published in US20240252488A1 (KOREA RESEARCH INSTITUTE OF CHEMICAL TECHNOLOGY, priority 2020, published 2024).

What was measured:
MLKL [1] = target: T1, MLKL (Homo sapiens, UniProt Q8NB16); experiment: Measurement of binding affinity with MLKL receptor (competitive binding assay, Kd); design: made in house; host or cells: HEK 293 cell line (T7 phage in E. coli BL21-derived host is also described)
T1 sequence (Q8NB16 1-471): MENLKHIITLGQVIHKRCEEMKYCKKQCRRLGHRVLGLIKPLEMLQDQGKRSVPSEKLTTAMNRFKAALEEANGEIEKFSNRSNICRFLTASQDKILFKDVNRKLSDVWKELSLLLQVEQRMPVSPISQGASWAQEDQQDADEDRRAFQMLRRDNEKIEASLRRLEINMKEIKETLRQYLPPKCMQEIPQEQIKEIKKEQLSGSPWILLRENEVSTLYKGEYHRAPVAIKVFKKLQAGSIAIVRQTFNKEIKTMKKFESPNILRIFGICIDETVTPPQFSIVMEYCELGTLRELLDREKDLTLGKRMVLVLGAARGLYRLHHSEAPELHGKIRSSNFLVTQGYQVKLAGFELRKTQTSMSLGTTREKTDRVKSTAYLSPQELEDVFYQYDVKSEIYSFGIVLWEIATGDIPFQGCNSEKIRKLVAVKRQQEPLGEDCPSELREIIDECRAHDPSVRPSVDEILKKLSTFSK
Outline: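 MLKL was produced in HEK 293 cells and tagged with DNA for detection. Liganded beads were blocked with excess biotin and washed to cut non-specific binding, then compounds (111× DMSO stocks, 0.9% DMSO in assay) competed for binding. Eluate kinase was measured by qPCR for Kd.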

FADD−/− Jurkat cells = experiment: Necroptosis inhibition assay, TNF-α-induced necroptosis (CellTiter-Glo 2.0); format: cell-based, human; conditions: TNF-α 15 ng/mL; for Necroptosis inhibition assay (Rescue %) 1 μM: compound 1 μM; for Necroptosis inhibition assay (Rescue %) 10 μM: compound 10 μM
Outline: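 Cells at 5.0×10^5 cells/mL were pretreated with compound (final 0.1, 1 and 10 μM) for 30 minutes at room temperature, then given TNF-α at 15 ng/mL final. After 20 to 24 hours at 37° C, 5% CO2, viability was read as ATP luminescence to calculate cytotoxicity and necroptosis inhibition rate.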

MLKL [2] = target: T1, MLKL; experiment: MLKL degradation assay in HepG2 cell line (western blot); format: cell-based; design: endogenous in cells; host or cells: HepG2 or HaCaT; conditions: cell line not given; for Degradation assay (Degradation %) 1 μM: compound 1 μM; for Degradation assay (Degradation %) 10 μM: compound 10 μM
Outline: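 HepG2 cells were exposed to compound at a final 1 or 10 μM for 20-24 hours at 37 °C, 5% CO2. RIPA lysates were normalized by BCA assay, 10-15 μg protein resolved by SDS-PAGE, and MLKL levels detected by western blot with chemiluminescence.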

Compound	Kd (MLKL [1]) [nM]	Degradation assay (Degradation %) 1 μM (MLKL [2]) [%]	Degradation assay (Degradation %) 10 μM (MLKL [2]) [%]	Necroptosis inhibition assay (Rescue %) 1 μM (FADD−/− Jurkat cells; FADD−/− Jurkat cells) [%]	Necroptosis inhibition assay (Rescue %) 10 μM (FADD−/− Jurkat cells; FADD−/− Jurkat cells) [%]	Necroptosis inhibition assay (Rescue %) 1 μM (FADD−/− Jurkat cells) [%]	Necroptosis inhibition assay (Rescue %) 10 μM (FADD−/− Jurkat cells) [%]
Nc1ncc(-c2cnn(C3CCN(CCOC4CCN(C(=O)C5CN(C6=CC(=O)N(C7CCC(=O)NC7=O)C6=O)C5)CC4)CC3)c2)nc1C(=O)O[C@@H](C(=O)Nc1ccc(F)cc1)c1ccccc1 (stereo partly drawn) [TDH-541, (R)-2-((4-fluorophenyl)amino)-2-oxo-1-phenylethyl 3-amino-6-(1-(1-(2-((1-(1-(1-(2,6-dioxopiperidin-3-yl)-2,5-dioxo-2,5-dihydro-1H-pyrrol-3-yl)azetidine-3-carbonyl)piperidin-4-yl)oxy)ethyl)piperidin-4-yl)-1H-pyrazol-4-yl)pyrazine-2-carboxylate]	0.34	78.24	69.17	24.95	24.58		
Nc1ncc(-c2cnn(C3CCN(C(=O)CCC4CCN(C(=O)C5CN(c6cccc7c6C(=O)N(C6CCC(=O)NC6=O)C7=O)C5)CC4)CC3)c2)nc1C(=O)O[C@@H](C(=O)Nc1ccc(F)cc1)c1ccccc1 (stereo partly drawn) [TDH-427, (R)-2-((4-fluorophenyl)amino)-2-oxo-1-phenylethyl 3-amino-6-(1-(1-(3-(1-(1-(2-(2,6-dioxopiperidin-3-yl)-1,3-dioxoisoindolin-4-yl)azetidine-3-carbonyl)piperidin-4-yl)propanoyl)piperidin-4-yl)-1H-pyrazol-4-yl)pyrazine-2-carboxylate]	2.4	75.94	59.59	5.57	9.73		
Nc1ncc(-c2cnn(C3CCN(C4CC5(CCN(CC6CCN(C(=O)C7CCN(C8=CC(=O)N(C9CCC(=O)NC9=O)C8=O)CC7)CC6)CC5)C4)CC3)c2)nc1C(=O)O[C@@H](C(=O)Nc1ccc(F)cc1)c1ccccc1 (stereo partly drawn) [TDH-528, (R)-2-((4-fluorophenyl)amino)-2-oxo-1-phenylethyl 3-amino-6-(1-(1-(7-((1-(1-(1-(2,6-dioxopiperidin-3-yl)-2,5-dioxo-2,5-dihydro-1H-pyrrol-3-yl)piperidine-4-carbonyl)piperidin-4-yl)methyl)-7-azaspiro[3.5]nonan-2-yl)piperidin-4-yl)-1H-pyrazol-4-yl)pyrazine-2-carboxylate]	0.18	63.93	56.11	40.69	0.38		
Nc1ncc(-c2cnn(C3CCN(CCOC4CCN(C(=O)c5ccc6c(c5)CN(C5CCC(=O)NC5=O)C6=O)CC4)CC3)c2)nc1C(=O)O[C@@H](C(=O)Nc1ccc(F)cc1)c1ccccc1 (stereo partly drawn) [TDH-549, (R)-2-((4-fluorophenyl)amino)-2-oxo-1-phenylethyl 3-amino-6-(1-(1-(2-((1-(2-(2,6-dioxopiperidin-3-yl)-1-oxoisoindoline-5-carbonyl)piperidin-4-yl)oxy)ethyl)piperidin-4-yl)-1H-pyrazol-4-yl)pyrazine-2-carboxylate]	0.64	84.54	34.92	35.84	25.21		
Nc1ncc(-c2cnn(C3CCN(CCC4CCN(C(=O)c5ccc(C(=O)NC6CCC(=O)NC6=O)cc5)CC4)CC3)c2)nc1C(=O)O[C@@H](C(=O)Nc1ccc(F)cc1)c1ccccc1 (stereo partly drawn) [TDH-536, (R)-2-((4-fluorophenyl)amino)-2-oxo-1-phenylethyl 3-amino-6-(1-(1-(2-(1-(4-((2,6-dioxopiperidin-3-yl)carbamoyl)benzoyl)piperidin-4-yl)ethyl)piperidin-4-yl)-1H-pyrazol-4-yl)pyrazine-2-carboxylate]	0.22	46.11	56.40	31.84	21.93		

Now from value to molecule, other results behind:

Kd (MLKL [1]) [nM]	Degradation assay (Degradation %) 1 μM (MLKL [2]) [%]	Degradation assay (Degradation %) 10 μM (MLKL [2]) [%]	Compound	Necroptosis inhibition assay (Rescue %) 1 μM (FADD−/− Jurkat cells; FADD−/− Jurkat cells) [%]	Necroptosis inhibition assay (Rescue %) 10 μM (FADD−/− Jurkat cells; FADD−/− Jurkat cells) [%]	Necroptosis inhibition assay (Rescue %) 1 μM (FADD−/− Jurkat cells) [%]	Necroptosis inhibition assay (Rescue %) 10 μM (FADD−/− Jurkat cells) [%]
0.53	88.92	86.09	Nc1ncc(-c2cnn(C3CCN(CC4CCN(CC5CCN(C(=O)c6ccc7c(c6)CN(C6CCC(=O)NC6=O)C7=O)CC5)CC4)CC3)c2)nc1C(=O)O[C@@H](C(=O)Nc1ccc(F)cc1)c1ccccc1 (stereo partly drawn) [TDH-550, (R)-2-((4-fluorophenyl)amino)-2-oxo-1-phenylethyl 3-amino-6-(1-(1-((1-((1-(2-(2,6-dioxopiperidin-3-yl)-1-oxoisoindoline-5-carbonyl)piperidin-4-yl)methyl)piperidin-4-yl)methyl)piperidin-4-yl)-1H-pyrazol-4-yl)pyrazine-2-carboxylate]	47.98	20.62		
13	23.54	44.2	Nc1ncc(-c2cnn(C3CCN(CC4CCN(CC(=O)NC5CCN(c6ccc7c(c6)C(=O)N(C6CCC(=O)NC6=O)C7=O)CC5)CC4)CC3)c2)nc1C(=O)OC(C(=O)Nc1ccc(F)cc1)c1ccccc1 (stereo not drawn) [TDH-272, 2-((4-fluorophenyl)amino)-2-oxo-1-phenylethyl 3-amino-6-(1-(1-((1-(2-((1-(2-(2,6-dioxopiperidin-3-yl)-1,3-dioxoisoindolin-5-yl)piperidin-4-yl)amino)-2-oxoethyl)piperidin-4-yl)methyl)piperidin-4-yl)-1H-pyrazol-4-yl)pyrazine-2-carboxylate]			60.73	72.92
0.74	58.62	23.6	Nc1ncc(-c2cnn(C3CCN(CCC4CCN(C(=O)C5CCN(c6ccc7c(c6)C(=O)N(C6CCC(=O)NC6=O)C7=O)CC5)CC4)CC3)c2)nc1C(=O)O[C@@H](C(=O)Nc1ccc(F)cc1)c1ccccc1 (stereo partly drawn) [TDH-197, (R)-2-((4-fluorophenyl)amino)-2-oxo-1-phenylethyl 3-amino-6-(1-(1-(2-(1-(1-(2-(2,6-dioxopiperidin-3-yl)-1,3-dioxoisoindolin-5-yl)piperidine-4-carbonyl)piperidin-4-yl)ethyl)piperidin-4-yl)-1H-pyrazol-4-yl)pyrazine-2-carboxylate]			56.07	32.02
0.92	89.17	91.3	Nc1ncc(-c2cnn(C3CCN(CCCC4CCN(C(=O)CCc5ccc6c(c5)C(=O)N(C5CCC(=O)NC5=O)C6=O)CC4)CC3)c2)nc1C(=O)O[C@@H](C(=O)Nc1ccc(F)cc1)c1ccccc1 (stereo partly drawn) [TDH-484, (R)-2-((4-fluorophenyl)amino)-2-oxo-1-phenylethyl 3-amino-6-(1-(1-(3-(1-(3-(2-(2,6-dioxopiperidin-3-yl)-1,3-dioxoisoindolin-5-yl)propanoyl)piperidin-4-yl)propyl)piperidin-4-yl)-1H-pyrazol-4-yl)pyrazine-2-carboxylate]	66.68	37.9		
